The results in this text go back to patent EP2571872B1, “COMPOUNDS” (Treherne, Johnathan Mark, priority 2010, dated 2011).

In one test the test system is SH SY5Y cells. Nature of the test: Cell viability assay for amyloid toxicity using MTT reduction. The settings on record: protection of SH SY5Y cells from a toxic insult of 10µM Aβ(1-42), MTT reduction as measure of cell viability, 24 h incubation. It is filed as cell-based. Here is the method:
Aβ(1-42) was prepared for amyloid aggregation and toxicity assays by dissolving Aβ(1-42) HCl salt in hexafluoroisopropanol (HFIP), with brief sonication and vortexing. This solution of the Aβ(1-42) peptide in HFIP was stored at 4°C @ 2mM. When required, an aliquot of this stock solution was freeze-dried and dissolved in DMSO to 200 times the required final assay concentration (e.g. 2mM for a final assay concentration of 10 µM).
A 20mM stock solution of each test compound was prepared in DMSO, and aliquots of these solutions were used to prepare further stock solutions of each test compound in DMSO, ranging in concentration from 3µM up to 10mM. These stock solutions were prepared for use as and when required and stored at -20°C (maximum of 3 freeze-thaw cycles). The 20mM parent stock solutions were stored frozen at -20 °C.
The activity of compounds in protecting SH SY5Y cells from a toxic insult of 10µM Aβ(1-42) was assessed by using inhibition of MTT reduction as a measure of cell viability. An aliquot (3µl) of test compound [various concentrations] in DMSO is added to 294 µl of Opti-Mem (containing 2% FBS, 1% Pen/Strep, 1% L-Gln) {daughter plate}. The well is mixed thoroughly. Then an aliquot (3 µl) of Aβ(1-42) [2mM] is added to the daughter plate wells and again mixed thoroughly. 50 µl is then aspirated and dispensed into wells containing 50 µl media + SH SY5Ycells (cells are also plated in Opti-Mem, at ∼ 30,000 cells/well/50 µl). […]
Cell plates are incubated for 24 h and then the MTT assay (Shearman, 1999), is performed. […] The plate was shaken and the absorbance was recorded at both 570 nm and 650 nm. ΔA values were calculated by subtracting absorbance at 650 nm from absorbance at 570 nm, to reduce non-specific background absorbance. ΔA values from equivalent experiments were averaged and % cell viability was determined as follows: % cell viability = ([ΔA(sample)-ΔA(deal cell control)] x 100%)/([ΔA(live cell control)-ΔA(dead cell control)]) [formula] • Live cell controls: 1% DMSO in Opti-Mem • Dead cell controls: 0.1% Triton X-100 added to cells […]
For orientation: Tetrazolium dyes change colour on reduction, which living cells bring about.

Test [1] deals with rat hippocampal brain slices. The test is described as follows: Long-term potentiation (LTP) in hippocampal brain slices, Aβ(1-42)-induced depression of LTP. Conditions: compound at 3µM, Schaffer collateral stimulation. Here is the method: Long-term potentiation (LTP) is a natural, prolonged electrophysiological response associated with the neurological processes of learning and short-term memory, which are affected in Alzheimer's disease. […] LTP was measured using stimulation of Schaffer collaterals in rat hippocampal brain slices, as described below.
20µL of 5mM Example 1 in DMSO was added to the stock Aβ(1-42) (1mL) and agitated at 37°C for 24hr. On the experimental day the mixture is diluted to 33mL in aCSF (32mL) immediately prior to use. The final concentration of Example 1 was 3µM. The final concentration of Aβ(1-42) was 1µM and the final concentration of DMSO was 0.06% […]
Schaffer collaterals were stimulated (3-22V, 0.1ms pulse width, 0.03Hz) with a concentric bipolar electrode and the evoked extracellular field excitatory postsynaptic potentials (fEPSPs) were recorded via an Axoclamp 2A amplifier from the stratum radiatum of the CA1 region of the hippocampus with a glass capillary microelectrode filled with 4M NaCl (resistance 2-4 MΩ). […] A 10 minute stable baseline period (control) was recorded followed by administration of test compound 10 minutes prior to high frequency stimulation (1sec 100Hz train) applied three times at 10 minute intervals with an 80 minute wash of test compound after the final high frequency stimulation protocol. […]

In general, IC50 refers to the midpoint of a concentration-inhibition curve. Low readings indicate higher potency, high ones lower potency.

For `Oc1cccc(Nc2ccc(Nc3cccc(O)c3)nn2)c1` [RS-0406, reference compound], in the test with SH SY5Y cells, the IC50 was found to be 35 µM.
`Fc1ccc2c(c1)N(c1ncc(Oc3cccc(N4CCOCC4)c3)cn1)CCO2` [Example 2, 6-Fluoro-4-[5-(3-morpholinophenoxy)pyrimidin-2-yl]-3,4-dihydro-2H-benzo[1,4]oxazine] came in with an IC50 in the test with SH SY5Y cells (Homo sapiens) of 26 µM.
`Fc1cccc2c1OCCN2c1ncc(Oc2cccc(N3CCOCC3)c2)cn1` [Example 1, 8-Fluoro-4-[5-(3-morpholinophenoxy)pyrimidin-2-yl]-3,4-dihydro-2H-benzo[1,4]oxazine]: the “toxic effect of 1µM Aβ(1-42) on LTP” value in test [1] is listed as “effectively blocked”. Besides, in the test on SH SY5Y cells (Homo sapiens), the IC50 came to 23 µM.
